In test [1] the test system is RGCs. Description: Microbead mouse model of ocular hypertension, Brn3a-positive RGC count and βIII-tubulin staining after intravitreal peptide. It is filed as in vivo, mice. The following applies: 1 μg intravitreal once weekly for three weeks; for RGCs per mm^2 in retina after six weeks: control almost 3,400, vehicle less than 2,300. As for the experimental part: The first ocular hypertension model was generated by initially anesthetizing mice via intraperitoneal injection of ketamine/xylazine supplemented with a topical application of 0.5% proparacaine hydrochloride. […] The cornea was gently punctured near the center using a 33G needle, and a small air bubble was injected to lift the anterior chamber of the eye. […] An antibiotic ointment was applied topically on the injected eye to prevent infection.
The intraocular pressure was measured weekly for six weeks using a tonometer. In particular, the mice were placed in an anesthetic chamber filled with a sustained flow of isoflurane (5% isoflurane at 2 L/minute mixed with oxygen). The tonometer took five measurements for each weekly check-in, eliminated the high and low readings, and generated an average intraocular pressure from the remaining readings for each mouse.
After six weeks of microbead injection, the eyes were dissected out and post-fixed with 4% PFA overnight at 4° C. The retinas were subsequently dissected out and washed three times in PBS before blocking (5% normal donkey serum and 1% Triton X-100 in PBS) overnight. Whole-mount retinas were then immunostained for Brn3a and βIII-tubulin (1:500 dilution), which are markers for RGCs and axonal cells, respectively. The retinas were then stained with Alexa Fluor 488 donkey anti-mouse or Texas red-conjugated goat anti-rabbit IgG (1:250 dilution). Four image fields from each retinal region were obtained using a 20× lens with a Zeiss confocal. The Brn3a-positive RGC numbers were counted (cells/mm^2) in the mid-peripheral regions from four quadrants of the whole-mounted retina using the ImageJ software (NIH). Contralateral uninjured eyes were used as a control.

In test [2] the test system is RGCs. Description: Silicone oil mouse model of ocular hypertension, Brn3a-positive RGC count after intravitreal peptide. To be noted: single 1 μg intravitreal dose, day 28. It is filed as in vivo, mice. An excerpt:
The second ocular hypertension model was generated by anesthetizing mice via intraperitoneal injection of ketamine/xylazine supplemented with topical application of 0.5% proparacaine hydrochloride. A 33G needle was tunneled through the cornea of each tested eye at the superotemporal side close to the limbus to reach the anterior chamber without injuring the lens or iris. […] After the injection, the upper eyelid was gently massaged to close the corneal incision and minimize oil leakage, and veterinary antibiotic ointment was applied to the surface of the injected eye to prevent infection.
After two weeks, the silicone oil droplet was removed. […] Veterinary antibiotic ointment was applied to the surface of the eye after oil removal.
The intraocular pressure of each eye was monitored once weekly until four weeks after silicone oil injection using a tonometer under anesthesia with a sustained flow of isoflurane (5% isoflurane at 2 L/minute mixed with oxygen). Two weeks after oil removal (day 28), retinas were removed and immunostained with Brn3a and βIII-tubulin antibodies to visualize and count the surviving RGCs.

The subject of test [3] is Human retinal endothelial cells (HRECs). Description: Pro-inflammatory cytokine-mediated apoptosis of HRECs, cleaved caspase-3 Western blot. It is filed as cell-based. The following applies: 200 μg/mL peptide for three hours, then cytokine mixture (CM) 48 hours, CM only approx. 1:1. As for the experimental part:
The sequence of the first scrambled control peptide was […] (SEQ ID NO: 4), and the sequence of the second scrambled control peptide was […] (SEQ ID NO: 5). All test cells were then treated with a combination of pro-inflammatory cytokines (IFN-γ at 50 U/mL+TNF-α at 20 ng/mL+IL-1β at 20 ng/mL) for 48 hours.
Cell lysates were prepared using 1×RIPA buffer containing a protease inhibitor cocktail. Protein concentrations of the cell lysates were measured using the BCA method, and 25 μg of protein were used for immunoblotting. To measure HREC apoptosis, the cells were immunostained for active (cleaved) caspase-3, specifically, which is a marker for apoptosis. β-actin antibody staining was used as a control for measuring levels of a housekeeping protein and for calculating protein density compared to caspase-3 levels.
On the technique in general: In western blotting, separated proteins are transferred to a membrane and probed.

The test system of another test is retinal capillary cells. Description: I/R injury mouse model, acellular retinal capillary count. It is filed as in vivo, C57BL/6J mice. To be noted: 0.5 μg intravitreal immediately after I/R injury and again after one week; day 14.
The test system of a further test is IL-1β. Description: I/R injury mouse model, retinal cytokine mRNA by quantitative real-time PCR. It is filed as in vivo, mice. The following applies: two days after I/R injury; 0.5 μg intravitreal. As for the experimental part: (§1) To measure pro-inflammatory cytokine levels, mice were sacrificed, and retinas were dissected two days after I/R injury. Total RNA was then lysed from the retinas, two micrograms of RNA was reverse-transcribed to synthesize cDNA, and quantitative real-time PCR was performed. The sequences of the PCR primers were as follows: TNF-α forward primer—5′-[…]-3′ and reverse primer—[…]-3′; IL-1β forward primer—5′-5′-[…]-3′ and reverse primer—5′-[…]-3; IFN-γ forward primer—5′-[…]-3′ and reverse primer—5′-[…]-3′. The mRNA levels were analyzed using the comparative Ct method (2-ΔΔCT) and then normalized to β-actin (forward primer—5′-[…]-3′ and reverse primer—5′-[…]-3′).
A general note: In qPCR the cycle at which signal appears reflects the starting amount.

For a further test, the system named is TNF-α. Described as above. It is filed as in vivo, mice. To be noted: two days after I/R injury; 0.5 μg intravitreal. Here is the method:
as §1

Description for retinal capillary cells: This ocular hypertension model was generated by initially anesthetizing 12-week-old C57BL/6J mice via intraperitoneal injection of ketamine/xylazine supplemented with a topical application of 0.5% proparacaine hydrochloride. To perform the I/R injury, the right eye was cannulated into the anterior chamber with a 33-gauge needle connected to an elevated pouch containing 250 ml of 0.9% NaCl solution. […] The PBS-injected eyes were used as vehicle controls. The contralateral eyes were used as additional controls.
After careful removal of the internal limiting membrane (ILM), retinas were placed in 12-well plates with Tris-HCl buffer at a pH of 7.8, and then shaken overnight to loosen the remaining RGCs. The retinas were then transferred to glass microscopy slides and the remaining neuronal tissues carefully dislodged through gentle agitation produced by a 20-μL pipette in Tris-HCl. Periodic acid Schiff (PAS) stain was used to visualize the isolated retinal capillary layer. An inverted fluorescence microscope was used to image the mounted capillaries, and the acellular capillaries from each treatment group were counted and analyzed.

In the case of DRFSVNLDVKHFSPEELKVKV [peptain-1], in the test on RGCs [1], the “axonal degeneration (βIII-tubulin immunostaining)” value is “inhibited axonal degeneration”, the “reduction in RGC death (compared to vehicle control group)” value stood at 4% and the “RGCs per mm^2 in retina after six weeks” value was “over 3,200 RGCs per mm^2”. Moreover, the “RGC death reduced by (compared to PBS-treated control 206)” value in the test on RGCs [2] is reported as 15.7%. In test [3], the “density ratio of cleaved caspase-3 to β-actin” value (“density ratio” for short) is reported as approximately 0.5. The “number of acellular capillaries per retina” value in the test on retinal capillary cells was “lower number of per-retina acellular capillaries”. For the same substance, the “reduction of the increase in IL-1β expression compared to the vehicle group” value in the test on IL-1β is recorded as 4.6 fold. Moreover, the “reduction of the increase in TNF-α expression compared to the vehicle group” value in the test on TNF-α was 6.2 fold.

Consider FEPSVRFSKVDHLVKENDLVK [Scr-2], for which the “density ratio” value in test [3] is reported as “greater density ratio”.

With “G^73HFSVLLDVK(acetyl)HFSPEEIAVK^91 [peptain-3a]”, in the test with RGCs [1], the “axonal degeneration (βIII-tubulin immunostaining)” value is given as “inhibited axonal degeneration”, the “reduction in RGC death (compared to vehicle control group)” value was 12% and the “RGCs per mm^2 in retina after six weeks” value was “about 3,000 RGCs per mm^2”. The “RGC death reduced by (compared to PBS-treated control 206)” value in the test with RGCs [2] was 14.2%.

As to SLKEKRNFDVSEVKHVLFVDP [Scr-1], in test [3], the “density ratio” value is “greater density ratio”.

For the origin of these results see US20240226232A9, “PROTEIN-BASED THERAPIES FOR OCULAR CONDITIONS” (The Regents of the University of Colorado, A Body Corporate, priority 2021, published 2024).
